Reference: the METLIN SMRT retention time set (Domingo-Almenara et al. 2019)

Assay: gradient 5% acetonitrile 3 min, to 50% in 2 min, to 85% in 15 min, held 3 min, 100 µL/min
Conditions: column: Zorbax Extend-C18 2.1 x 50 mm; eluents: water / acetonitrile, 0.1% formic acid
Method in brief: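 Retention time was recorded from adduct peaks, which were picked computationally and each inspected manually. Pure standards ran in mixtures of ~100 molecules on HPLC coupled to a quadrupole time-of-flight mass spectrometer, in positive and negative ionization mode, through a Zorbax Extend-C18 column (2.1 × 50 mm, 1.8 μm) at 100 μL/min. Eluents were water and acetonitrile, each with 0.1% formic acid.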

| Structure (SMILES) | RP-LC retention time [s] |
| --- | --- |
| c1cncc(-c2nc(-c3ccc(OC4CNC4)cc3)no2)c1 | 605 |
| Cn1c(C(=O)NC2CCCCC2)cc2c(-c3cccs3)nn(-c3ccccc3)c21 | 1210 |
| COc1ccccc1-c1noc(-c2cn(C)c3ccc(F)cc3c2=O)n1 | 744 |
| COc1ccc(NC(=O)N(C)CCc2noc(-c3ccc(Cl)cc3)n2)c(OC)c1 | 959 |
| Cc1ccc(CN2N=C(C(=O)N3CCCC3)S(=O)(=O)c3ccccc32)cc1 | 895 |
| Cc1oc2nc3c(c(=O)n(CC(=O)OCc4ccccc4)c(=O)n3C)n2c1C | 840 |
| CCN(Cc1ccccc1)c1ccc(-c2noc(CN3CCSCC3)n2)cn1 | 1030 |
| COc1ccc(CNC(=O)c2cn3ccccc3n2)c(OC)c1 | 658 |
| Cc1ccc(CN2CCCn3nc(C(=O)NCCc4c[nH]c5ccc(Cl)cc45)cc3C2=O)cc1 | 953 |
| O=C(NCC(=O)N1CCCc2ccccc21)c1cccs1 | 761 |
| COc1ccccc1NC(=O)NCCc1nc2cccnc2n1C1CCCC1 | 728 |
| Cc1ccc2[nH]cc(CCNC(=O)c3cc(-c4cccnc4)nc4ccccc34)c2c1 | 784 |
| CC1=C(N2CC2)C(=O)C(CO)=C(N2CC2)C1=O | 585 |
| CCC(=O)N1CCc2cc(N3CC(C(=O)NCc4cc(F)cc(F)c4)CC3=O)ccc21 (configuration not stated) | 734 |
| O=C(NCc1[nH]nc2ccccc12)c1cccc2[nH]ccc12 | 657 |
| CC(=O)N1CCc2c([nH]c3ccccc23)C12C(=O)N(CCC(C)C)c1ccc(Br)cc12 (configuration not stated) | 1040 |
| O=C(NCc1n[nH]c(=O)c2ccccc12)C1CC(=O)N(c2ccccc2)C1 (configuration not stated) | 594 |
| CCS(=O)(=O)Nc1ccc(C2(C(=O)NC(C)c3ccccc3)CCCCC2)cc1 (configuration not stated) | 976 |
| CCc1cc(C(=O)Nc2cc(C)ccc2C)nc2ccnn12 | 1140 |
| CN1c2ccccc2C(=O)NC12CCN(C(=O)Nc1cccc(F)c1)CC2 | 726 |
| COc1ccccc1N1CCNCC1 | 627 |

| Structure (SMILES) | RP-LC retention time [s] |
| --- | --- |
| Cc1ccc(CNC(=O)C2(C)CN(S(C)(=O)=O)CC(=O)N2c2cccc(C)c2C)cc1 (configuration not stated) | 856 |
| Cc1ccc(-c2noc(-c3ccccc3S(=O)(=O)N3CCCCC3C)n2)cc1 (configuration not stated) | 1250 |
| CCOC(=O)CNC(=O)NCc1ccc2ncccc2c1 | 596 |
| Cn1cc(-c2nc(C(=O)Nc3cccc(C#N)c3)cs2)c2cccnc21 | 946 |
| CCOc1ccccc1NC(=O)Cn1nc2n(c1=O)CCCC2 | 655 |
| Cn1nc(CNC(=O)c2ccc(Br)o2)c2ccccc21 | 795 |
| Cc1ccc(-c2cc3c(=O)n(Cc4nc(-c5ccc(Br)cc5)no4)ncn3n2)c(C)c1 | 1340 |
| Cc1cccc(NC(=O)Nc2ccc(-c3cccc4[nH]nc(N)c34)cc2)c1 | 789 |
| COc1cccc(-n2c(=O)c(C(=O)NCCc3cccs3)c(O)c3cccnc32)c1 | 1160 |
| CCOc1ccc(NC(=O)Cn2ccc3ccc(-c4nnc(CC)o4)cc32)cc1 | 851 |
| Cc1oc2c(c1C(=O)NCc1cccc(Br)c1)C1=NCCN1C=N2 | 654 |
| Cc1cccc(N2CCN(C3=NC(=O)C(Cc4ccccc4)S3)CC2)c1 (configuration not stated) | 910 |
| CC(C)n1cnc2cc(CNC(=O)c3ccccn3)ccc21 | 590 |
| COCCCNC(=O)c1nc2ccccn2c1-c1ccc(Cl)cc1 | 764 |
| Cn1c(C(=O)NCCCN2CCCCCC2)cc2c(-c3cccs3)nn(-c3ccccc3)c21 | 795 |
| COc1cc(-n2cnc3cc(C(=O)NCC4CCCO4)ccc32)cc(OC)c1OC (configuration not stated) | 660 |
| Cc1ccc(-c2nnc(CC(=O)NCCC(C)C)o2)cc1 | 829 |
| Cc1ccc(N2CC(c3noc(-c4ccc(C)cc4C)n3)CC2=O)cc1 (configuration not stated) | 1190 |
| COc1ccc2[nH]cc(CCNC(=O)c3c(Cl)cccc3Cl)c2c1 | 774 |
| O=C(Cc1ccsc1)N1CCC[C@H]1c1nc(-c2ccccc2)n[nH]1 | 718 |

Results, then the compound that gave them:

| RP-LC retention time [s] | Structure (SMILES) |
| --- | --- |
| 713 | CCOc1ccccc1N1CCN(C(=O)C2CCCN(c3nccc4sc(C)cc34)C2)CC1 (configuration not stated) |
| 762 | O=C(NCc1ccccc1F)C1CCCN(c2nn3c(=O)c4c(nc3s2)CCCC4)C1 (configuration not stated) |
| 582 | COc1cccc(N2CCN(CC(=O)N3CCC(C(N)=O)CC3)CC2)c1 |
| 829 | Cc1ccc(C)c(N2CCN(C(=O)c3cnc4ncnn4c3C)CC2)c1 |
| 1110 | Cc1ccccc1Oc1nccnc1N1CCC(C(=O)NCCC2=CCCCC2)CC1 |
| 969 | CC1CCN(S(=O)(=O)c2nn(C)cc2C(=O)NCc2cc(F)cc(F)c2)CC1 |
| 625 | O=C(c1cccs1)N1CCN(c2cnn3c(C4CC4)nnc3c2)CC1 |
| 647 | CC(C)Oc1cc2oc(=O)cc(-c3ccccc3)c2cc1CCC(=O)N1CCN(c2ccccn2)CC1 |
| 828 | O=C(Cc1ccccc1Cl)N1CCN(c2cc(-c3ccccc3)[nH]n2)CC1 |
| 587 | CC1CCCCN1CCCNC(=O)C1CCN(c2nc3cccnc3s2)CC1 (configuration not stated) |
| 937 | CC1CCN(C(=O)CN2C(=O)C3CCCCN3c3ccc(S(=O)(=O)N4CCCC4)cc32)CC1 (configuration not stated) |
| 714 | O=C(CSc1cc(-n2ccc(C(=O)NC3CC3)n2)ncn1)Nc1ccc2c(c1)OCO2 |
| 637 | COc1ccc(C2C(C(=O)N3CCOCC3)c3cc(OC)c(OC)cc3C(=O)N2C)cc1OC (configuration not stated) |
| 933 | O=C1NCCCCCN(C(=O)CC2CCCCC2)[C@@H]2C[C@@H](C(=O)N3CCc4ccccc4C3)C[C@H]12 |
| 606 | CCOc1ncccc1C(=O)N1CCN(c2ccc(-c3ccc(OC)c(OC)c3)nn2)CC1 |
| 824 | O=C(NC1CCCCC1)C1CC(=O)N(c2ccc3c(c2)CCN3C(=O)C2CCC2)C1 (configuration not stated) |
| 580 | O=C(Cn1nc(C(=O)N2CCCC2)c2ccccc21)NCc1cccnc1 |
| 753 | COc1ccccc1-c1noc(C2CCCN2C(=O)NC(C)C)n1 (configuration not stated) |
| 729 | CCc1ccc(NC(=O)C2CCN(S(=O)(=O)c3c(C)[nH]c(C)c3C(=O)N3CCCC3)CC2)cc1 |
| 615 | O=C(NC1CC1)c1ccccc1OCC1CCCN(Cc2cn[nH]c2-c2cccs2)C1 (configuration not stated) |
| 670 | O=C(C1CCC1)N1CCC(Oc2cc(N3CCOCC3)ncn2)C1 (configuration not stated) |
| 814 | O=C(c1cccs1)N1CCN(c2ccc(=O)n(-c3cccc(Cl)c3)n2)CC1 |
| 638 | Cc1cc(C(=O)Nc2cccc(-c3ccc(N4CCOCC4)nn3)c2)c(C)o1 |
| 826 | N#Cc1ccc(C(=O)N2CCN(c3cc(-c4ccc(Cl)cc4)[nH]n3)CC2)cc1 |
| 628 | Cn1nc(-c2nc(C3CC3)no2)c2c1CCN(C(=O)c1ccncc1)C2 |
| 870 | Cc1ccc(S(=O)(=O)N2CCC(c3nc(C(=O)N4CCOCC4)c(C)o3)CC2)cc1C |
